Source: patent publication US12187663B2, “Thyromimetics with a biphenylmethane scaffold and their use” (INTERNATIONAL SOCIETY FOR DRUG DEVELOPMENT S.R.L., priority 2019, dated 2025)

Assays:
[1] = system: HepG2 cells; assay: Total lipid accumulation by Oil Red O staining; type: cell-based, Human; details: 25 μM
Method: Total lipid accumulation was evaluated according to the method previously described by Liu et al.. […] Cloroquine (25 μM) and Isoproterenol (10 μM) were used as positive controls. Subsequently, after collecting the growth media to be used to perform glycerol level measurements (as detailed below), cells were rinsed twice with PBS and fixed in 4% paraformaldehyde in PBS for 30 min. Then, cells were stained with Oil Red O working solution for 1 h at room temperature and subsequently rinsed with water.
The Oil Red O stock solution was prepared by dissolving 0.35 g of Oil Red O (Sigma Aldrich, Milan, Italy) in 100 mL of isopropanol by gentle heating and then cooled and filtered through a 0.45 μm filter. The working solution was prepared by diluting three parts of the stock solution in two parts of MilliQ water (stock solution:MilliQ water; 3:2 v/v). The cell images were captured with a Leitz Fluovert FU (Leica Microsystems, Wetzlar, Germany) microscope. Lipids appeared red. For quantitative analysis of cellular lipids, 1 mL isopropanol was added to each well of the stained culture plate. The extracted dye was immediately removed by gentle pipetting and its absorbance was measured at 510 nm.

[2] = system: ACC; assay: Western blot of phosphorylated ACC in HepG2 cells; type: cell-based, Human; details: twenty-four hours of treatment
Method: (§1) Human hepatocellular carcinoma cells (HepG2), obtained from American Type Culture Collection (Manassas, Va., USA), were cultured in low-glucose (LG) Dulbecco's modified Eagle's medium (DMEM) ([…], Invitrogen, Carlsbad, Calif., USA) or high-glucose (HG) DMEM ([…]) supplemented with 10% fetal bovine serum (FBS) and […] penicillin/streptomycin in an atmosphere of 5% CO2 at 37° C. These cells were then treated with tested compounds at various concentrations for 24 h. After treatments, cells were lysed in a buffer containing 20 mM Tris-HCl (pH 7.5), 0.9% NaCl, 0.2% Triton X-100, and 1% of the protease inhibitor cocktail (Sigma-Aldrich, Milan, Italy) and then stored at −80° C. for further western blot analysis. All the analyses were conducted on cells between the third and the sixth passage.
(§2) Proteins (20-30 μg) were separated on CriterionTGX™ gel (4-20%) and transferred on Immuno-PVDF membrane (Biorad, Milan, Italy) for 1 h. Blots were incubated with the primary antibody at 4° C. overnight. All the polyclonal antibodies for the protein of interest were purchased from Santa Cruz Biotechnology, Inc., Dallas, TX, USA. Then, blots were washed 3 times for 10 minutes with 1×TBS, 0.1% Tween® 20 and incubated for 1 h with secondary antibody (peroxidase-coupled anti rabbit in 1×TBS, 0.1% Tween®20). […] Band densitometric analysis was performed using Image Lab Software (Biorad, Milan, Italy).
(§3) The liver is a major organ responsible for most functions of cellular metabolism and a mediator between dietary and endogenous sources of energy for extrahepatic tissues. In this context, AMPK constitutes an intrahepatic energy sensor regulating physiological energy dynamics by limiting anabolism and stimulating catabolism, thus increasing ATP availability. Once activated, AMPK phosphorylates its downstream substrates to reduce ATP-consuming anabolic pathways, including cholesterol, fatty acid, and triacylglycerol synthesis, and increases ATP-generating catabolic pathways, including fatty acid oxidation and lipolysis. […]

[3] = system: HepG2 cells; assay: Cell viability MTT assay; type: cell-based; details: 1-10 μM, 24 h
Method: HepG2 cells were seeded in a 96-well plate (Corning, USA) at a density of 1.0×10^4 cells/well with DMEM (200 μl/well), and then incubated for 24 h according to routine procedure. After being treated with test compounds (1-10 μM) and incubated for 24 h (8 wells for each sample), 20 μL/well MTT (5 g/L) was added to each well. The medium was then removed after 4 h incubation and 100 μL/well sodium dodecyl sulfate (SDS)-HCl solution was added to dissolve the reduced formazan product after incubation for 16 h at 37° C. Finally, the plate was read at 570 nm, using a micro-plate reader (Bio-Rad 680, USA).

[4] = system: AMPK; assay: Western blot of phosphorylated AMPK in HepG2 cells; type: cell-based, Human; details: twenty-four hours of treatment, dose dependent
Method: as §1, §2, §3

[5] = system: pancreatic acinar cells; assay: Pancreatic acinar cell proliferation (BrdU labeling index); type: in vivo, rats; details: one week; T3 4 mg/kg diet; GC1 50 μg/kg gavage once daily; TG68 and IS25 50 μg/kg in drinking water
Method: FIG. 9. […] BrdU (1 mg/ml) in drinking water was given all throughout the experimental time. […] LI was expressed as number of BrdU-positive acinar cell nuclei/100 nuclei. At least 2000 acinar cells per pancreas were scored. Results are expressed as means±SE of 3 to 5 rats per group. (one way ANOVA). ***Statistically significant from control; P<0.001.
BrdU (1 mg/ml) in drinking water was given all throughout the experimental time. […] LI was expressed as number of BrdU-positive acinar cell nuclei/100 nuclei. At least 2000 acinar cells per pancreas were scored.

[6] = known property of the reference; cited from earlier work

CCN(CC)CCCC(C)Nc1ccnc2cc(Cl)ccc12 (stereo not drawn) [Cloroquine]
red lipid droplets (Oil Red O), steatosis-inducing positive control [1]: high amount of red lipid droplets

N[C@@H](Cc1cc(I)c(Oc2ccc(O)c(I)c2)c(I)c1)C(=O)O [Compound T3, 3,5,3′-triiodothyronine, reference compound]
ACC phosphorylation (p-ACC) [2]: significant ACC phosphorylation
cell viability (cell death with respect to control) [3]: did not significantly (p<0.05) cause cell death
expression of p-AMPK [4]: significantly (p<0.05) increased

Cc1cc(OCC(=O)O)cc(C)c1Cc1ccc(O)c(C(C)C)c1 [GC-1, Sobetirome, reference compound]
pancreatic acinar cell proliferation (BrdU-positive acinar cells) [5]: Several BrdU-positive acinar cells were observed
solubility in water [6]: insoluble compound in water
